System: cardiac endothelial cells
Experiment: collagen gel assay: transformation of cardiac endothelial cells to mesenchymal cells
Type: cell-based
Details: at physiological concentrations (Tβ4)
Experimental: Synthetic Tβ4 and an antibody to Tβ4 was provided by RegeneRx Biopharmaceuticals, Inc. (3 Bethesda Metro Center, Suite 700, Bethesda, Md. 20814) and were tested in a collagen gel assay to determine their effects on the Transformation of cardiac endothelial cells to mesenchymal cells. It is Well established that development of heart valves and other cardiac tissue are formed by epithelial-mesenchymal transformation and that defects in this process can cause serious cardiovascular malformation and injury during development and throughout life. […] Transformation of atrioventricular endocardium into invasive mesenchyme is critical in the formation and maintenance of normal cardiac tissue and in the formation of heart valves.

Thymosin β4 (SDKPDMAEIEKFDKSKLKKTETQEKNPLPSKETIEQEKQAGES; not fully specified; Thymosin beta-4; UniProt P62328 2-44, looked up) [Tβ4, synthetic Tβ4 provided by RegeneRx]
effect on the transformation of endocardial cells to mesenchymal cells in the collagen gel assay: markedly enhances the transformation

— patent US9056087B2, “Methods of healing or preventing inflammation, damage and other changes that occur prior to, during or immediately after a myocardial event with thymosin beta 4, analogues, isoforms and other derivatives” (REGENERX BIOPHARMACEUTICALS, INC., priority 2001, dated 2015)
